What was measured:
tubulin = experiment: Tubulin polymerization inhibition; assay type: biochemical, mammalian; conditions: 100 μM
Mtb H37Rv = Mtb H37Rv growth inhibition; assay type: cell-based, Mycobacterium tuberculosis

SMILES: CCOC(=O)Nc1nc(NC(C)CCCN(CC)CC)c2nc(-c3ccccc3)c(-c3ccccc3)nc2n1 (centres unmarked) [Compound 2, reference compound]
- Tubulin Polymerization inhibition (tubulin): 24% inhibition 100 μM

SMILES: CCOC(=O)Nc1cc(NCCCCN(CC)CC)c2nc(-c3ccccc3)c(-c3ccccc3)nc2n1 [Compound 17, Ethyl (8-((4-(diethylamino)butyl)amino)-2,3-diphenylpyrido[2,3-b]pyrazin-6-yl)carbamate]
- Tubulin Polymerization inhibition (tubulin): 40% inhibition 100 μM

SMILES: CCOC(=O)Nc1nc(NC(C)CCCN(CC)CC)c2c(n1)SC(c1ccccc1)C(c1ccccc1)=N2 (centres unmarked) [Compound 37, Ethyl (4-((5-(diethylamino)pentan-2-yl)amino)-6,7-diphenyl-7H-pyrimido[4,5-b][1,4]thiazin-2-yl) carbamate]
- IC90 (H37Rv) fold less active than lead compound 2 (Mtb H37Rv): 10 fold

SMILES: CCOC(=O)Nc1nc(NCCCCN(CC)CC)c2c(n1)SC(c1ccccc1)C(c1ccccc1)=N2 (centres unmarked) [Compound 38, Ethyl (4-((4-(diethylamino)butyl)amino)-6,7-diphenyl-7H-pyrimido[4,5-b][1,4]thiazin-2-yl)carbamate]
- IC90 (H37Rv) fold less active than lead compound 2 (Mtb H37Rv): 10 fold
- IC90 (Mtb H37Rv; Mycobacterium tuberculosis, H37RV, read-out: Mtb H37Rv IC90, extrapolated from 10 point dose response curve): 18.5 µM

Reference: paper PMC3216299 (Bioorganic & medicinal chemistry, 2011)
